# Measured values: US9072698B2, “Method for screening anti-cancer compounds inhibiting function of TM4SF5 and anti-cancer composition containing chalcone compounds” (Seoul National University Industry Foundation, priority 2006, dated 2015)
# Columns and labels:
# [1] = test system: cells not expressing TM4SF5; assay: Growth/proliferation of cells not expressing TM4SF5 (FIG. 51); assay type: cell-based
# SNU449 Cp cells = assay: Cell growth over time of TM4SF5-null cells (FIG. 43, left); assay type: cell-based, human; conditions: TSAHC at given concentrations
# Protocol: Arrows indicate the overlapping nuclei of cells undergoing cell division. […] In addition, in order to measure the growth rates of the cells, 5×10^4 cells were plated onto 6-well plates and counted every 12 hrs. The results are expressed as a graph. […] This was observed even at a low cell density. That is, among cells at a low density, TM4SF5-expressing cells proliferated through cell division, during which two nuclei overlapped each other.
# MMP-2 and MMP-9 = assay: Gelatin zymography of culture supernatants (FIG. 68); assay type: cell-based, human; conditions: 20 μM, 24 hrs
# Protocol: The substrate degradation activity of secreted MMPs was investigated using gelatin zymography. Cell lines, indicated in FIG. 62, were cultured in 60-mm culture dishes. After 18 hrs, the medium was exchanged with serum-free medium, and cells were cultured for a further 24 hrs. Culture supernatants were collected to obtain secreted MMPs, and were then concentrated. Samples were electrophoresed on the running SDS-PAGE gel containing gelatin as a substrate for MMPs under reducing conditions. The gel was washed in 1% Triton X-100 to remove SDS, thus renaturing the enzymes. The gel was then incubated in enzyme reaction buffer (10 mM CaCl2, 0.15 M NaCl, 50 mM Tris-HCl, pH 7.5) at 37° C. for 18 hrs. The gel was stained with 0.5% Coomassie Brilliant Blue R250 for 3 hrs, and destained until clear bands appeared in 10% acetic acid and 30% methanol.
# In addition, Cp cells and Tp cells were treated with 20 μM of TSAHC for 24 hrs. The medium was exchanged with serum-free medium, and cells were cultured for a further 18 hrs. Culture supernatants were collected, concentrated, and analyzed using zymography, as described above.
smiles,measurement,setting,value
"Cc1ccc(S(=O)(=O)Nc2ccc(C(=O)/C=C/c3ccc(O)cc3)cc2)cc1 [Compound 1, 4′-(p-toluenesulfonylamino)-4-hydroxychalcone]",growth or proliferation of cells not expressing TM4SF5,[1],did not affect cells not expressing TM4SF5
same,effect on TM4SF5-null cells,SNU449 Cp cells,did not affect TM4SF5-null cells
same,TM4SF5-mediated activity of MMPs,MMP-2 and MMP-9,inhibit the TM4SF5-mediated activity of MMPs
